Experimental data taken from article PMC8862607 (Molecular microbiology, 2021).
Like-named read-outs stand apart in the source and are kept apart here.

Columns and labels:
[1] = target: T1, AntR (Comamonas testosteroni, UniProt A0A096F4H2); type: cell-based, Comamonas testosterone JL40
[2] = tested on: AntR C103S; test: Two-plasmid gfp biosensor with AntR C103S mutant in E. coli AW3110; type: cell-based, Comamonas testosterone JL40; conditions: 0.2% arabinose, E. coli AW3110(DE3), Figure 3c
[3] = tested on: AntR C113S; test: Two-plasmid gfp biosensor with AntR C113S mutant in E. coli AW3110; type: cell-based, Comamonas testosterone JL40; conditions: 0.2% arabinose, E. coli AW3110(DE3), Figure 3d
[4] = target: T1, AntR; type: binding, Comamonas testosterone JL40; conditions: read-out: apparent Kd (ITC)
[5] = tested on: AntR binding to the ant operator/promoter DNA; type: biochemical, Comamonas testosterone JL40
[6] = target: AntR Y96W derivative (Comamonas testosteroni, UniProt A0A096F4H2, Y97W); type: binding, Comamonas testosterone JL40; conditions: read-out: apparent Kd (fluorescence quenching); pH 7.8
Sequence of AntR Y96W derivative (A0A096F4H2 1-124 Y97W): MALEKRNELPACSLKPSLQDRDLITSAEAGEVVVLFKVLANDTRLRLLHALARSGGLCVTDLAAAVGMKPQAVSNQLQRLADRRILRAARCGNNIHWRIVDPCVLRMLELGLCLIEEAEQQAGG

T1 sequence (A0A096F4H2 1-124): as the sequence (A0A096F4H2 1-124 Y97W) above, with W97Y counted along it

| Compound | induction of gfp expression in biosensor [1] | response of AntR repressor to metalloid (introductory summary) [1] | response of C103S mutant biosensor compared with the wild type [2] | response of C113S mutant biosensor compared with the wild type [3] | Kd [4] | induction of gfp expression in biosensor ([1]; 5 µM metalloid, 0.2% arabinose, E. coli AW3110Δars, wild-type AntR) | effect of metal(loid) on AntR mobility shift of ant promoter probe (EMSA) [5] | Kd [6] |
| --- | --- | --- | --- | --- | --- | --- | --- | --- |
| C[As](O)O [MAs(III), methylarsenite] | induced gfp expression | responds | reduced responses | reduced responses | – | – | – | – |
| antimonite [Sb(III)] | – | responds | reduced responses | reduced responses | 57 µM | induced gfp expression | mobility shift decreased | – |
| O[As](O)O [As(III), arsenite] | little gfp expression | only weakly | – | – | 440 µM | – | – | ~160 µM |
